Experimental data taken from ChEMBL document CHEMBL4190406, “Discovery of Potent, Selective, and Peripherally Restricted Pan-Trk Kinase Inhibitors for the Treatment of Pain” (J Med Chem, 2018).

What was measured:
in vitro [1] = conditions: human, liver microsomes
[2] = Clearance in iv dosed rat administered as 4 hrs infusion; assay type: ADME, organism-based; conditions: in vivo
[3] = Oral bioavailability in rat; assay type: ADME, organism-based; conditions: in vivo
in vitro [4] = conditions: dog, MDCK
[5] = Ratio of unbound brain to plasma concentration in iv dosed rat administered as 4 hrs infusion by equilibrium dialysis method; assay type: ADME, organism-based; conditions: brain and plasma, read-out: K(p,uu,brain)
in vitro [6] = conditions: human, hepatocytes
physchem = conditions: buffer, pH 7.4
[7] = Drug metabolism in human hepatocytes assessed as CYP450-mediated metabolite formation at 1 uM up to 240 mins by LC-MS/MS analysis; assay type: ADME, cell-based; conditions: 4 h

microsomal CLint at 1 h, 1 µM (in vitro [1]): < 8 µL/min/mg
clearance [2]: 38 mL/min/kg
bioavailability [3]: 45%
Papp A→B (in vitro [4]): 10 ×10⁻⁶ cm/s
Kp uu at 4 h [5]: 0.0065
hepatocyte CLint at 4 h, 1 µM (in vitro [6]): 8 µL/min/1e6 cells
logD (physchem): 2.9
Drug metabolism [7]: Metabolite_Detected
Compound: Cn1cnc(-c2ccc(OC3CCN(C(=O)Cc4ccc(OC(F)(F)F)cc4)CC3)c(C(N)=O)c2)c1
